We go through three compounds from patent US10167262B2, “Herbicidal substituted 3-arylpyrazoles” (FMC CORPORATION, priority 2014, dated 2019).

Common to all, as to assay: Test A pre-/postemergence greenhouse herbicide test, visual injury rating 0-100
Holding throughout (type): in vivo

For one test, the system named is corn (Zea mays). The source says:
(§1) Seeds of plant species selected from barnyardgrass (Echinochloa crus-galli), large (Lg) crabgrass (Digitaria sanguinalis), giant foxtail (Setaria faberii), morningglory (Ipomoea spp.), pigweed (Amaranthus retroflexus), velvetleaf (Abutilon theophrasti), wheat (Triticum aestivum), and corn (Zea mays) were planted into a blend of loam soil and sand and treated preemergence with a directed soil spray using test chemicals formulated in a non-phytotoxic solvent mixture which included a surfactant. At the same time these species were also treated with postemergence applications of test chemicals formulated in the same manner. Plants ranged in height from 2 to 10 cm and were in the one- to two-leaf stage for the postemergence treatment. Treated plants and untreated controls were maintained in a greenhouse for approximately 10 days, after which time all treated plants were compared to untreated controls and visually evaluated for injury. Plant response ratings, summarized in Table A, are based on a 0 to 100 scale where 0 is no effect and 100 is complete control. A dash (-) response means no test result.

Test [1] relates to barnyardgrass (Echinochloa crus-galli).
From the text: as §1

Test [2] deals with morningglory (Ipomoea spp.).
From the text: as §1

In test [3] the test system is wheat (Triticum aestivum).
From the text: as §1

The test system of test [4] is large (Lg) crabgrass (Digitaria sanguinalis).
From the text: as §1

The subject of test [5] is pigweed (Amaranthus retroflexus).
From the text: as §1

In test [6] the test system is giant foxtail (Setaria faberii).
From the text: as §1

In test [7] the test system is velvetleaf (Abutilon theophrasti).
From the text: as §1

With `CCn1cc(C(=NNc2ccccc2)c2ccccc2)c(-c2cc(Cl)cc(Cl)c2)n1` [Compound 36], the “Plant response rating (0 to 100 scale), Corn” value is reported as 0 with corn (Zea mays) (Postemergence, 125 g ai/ha); 0 in the test on corn (Zea mays) (Postemergence, 500 g ai/ha); 0 in the test with corn (Zea mays) (Preemergence, 500 g ai/ha). Besides, in the test with corn (Zea mays) (Preemergence, 125 g ai/ha), the “Corn plant response rating (0 = no effect, 100 = complete control)” value came to 0. Further, the “Plant response rating (0 to 100 scale), Barnyardgrass” value worked out at 0 in test [1] (Postemergence, 125 g ai/ha); 0 in test [1] (Postemergence, 500 g ai/ha); 0 in test [1] (Preemergence, 500 g ai/ha). Further, in test [1] (Preemergence, 125 g ai/ha), the “Barnyardgrass plant response rating (0 = no effect, 100 = complete control)” value came out at 0. Moreover, the “Plant response rating (0 to 100 scale), Morningglory” value in test [2] (Postemergence, 125 g ai/ha) came out at 0; in test [2] (Postemergence, 500 g ai/ha), 0; in test [2] (Preemergence, 500 g ai/ha), 0. The “Morningglory plant response rating (0 = no effect, 100 = complete control)” value in test [2] (Preemergence, 125 g ai/ha) is 0. For the same compound, the “Plant response rating (0 to 100 scale), Wheat” value in test [3] (Postemergence, 125 g ai/ha) was found to be 0; in test [3] (Postemergence, 500 g ai/ha), 0; in test [3] (Preemergence, 500 g ai/ha), 0. Further, the “Wheat plant response rating (0 = no effect, 100 = complete control)” value in test [3] (Preemergence, 125 g ai/ha) is 0. Also, the “Plant response rating (0 to 100 scale), Crabgrass, Large” value in test [4] (Postemergence, 125 g ai/ha) is 0; in test [4] (Postemergence, 500 g ai/ha), 0; in test [4] (Preemergence, 500 g ai/ha), 0. Further, in test [4] (Preemergence, 125 g ai/ha), the “Crabgrass, Large plant response rating (0 = no effect, 100 = complete control)” value worked out at 0. Also, the “Plant response rating (0 to 100 scale), Pigweed” value in test [5] (Postemergence, 125 g ai/ha) is on record as 30; in test [5] (Postemergence, 500 g ai/ha) it was 80; in test [5] (Preemergence, 500 g ai/ha), 70. For the same compound, the “Pigweed plant response rating (0 = no effect, 100 = complete control)” value in test [5] (Preemergence, 125 g ai/ha) is recorded as 0. Further, the “Plant response rating (0 to 100 scale), Foxtail, Giant” value is 0 in test [6] (Postemergence, 125 g ai/ha); 0 in test [6] (Postemergence, 500 g ai/ha); 0 in test [6] (Preemergence, 500 g ai/ha). Further, in test [6] (Preemergence, 125 g ai/ha), the “Foxtail, Giant plant response rating (0 = no effect, 100 = complete control)” value came to 0. Besides, the “Plant response rating (0 to 100 scale), Velvetleaf” value in test [7] (Postemergence, 125 g ai/ha) came to 70; in test [7] (Postemergence, 500 g ai/ha), 90; in test [7] (Preemergence, 500 g ai/ha), 20. Also, the “Velvetleaf plant response rating (0 = no effect, 100 = complete control)” value in test [7] (Preemergence, 125 g ai/ha) came to 20.

With `O=C(c1ccccc1)c1cn(CC(F)F)nc1-c1cc(F)cc(Cl)c1` [Compound 40], the “Plant response rating (0 to 100 scale), Corn” value in the test with corn (Zea mays) (Postemergence, 1000 g ai/ha) is 0; in the test with corn (Zea mays) (Preemergence, 1000 g ai/ha), 0. In addition, the “Plant response rating (0 to 100 scale), Barnyardgrass” value worked out at 0 in test [1] (Postemergence, 1000 g ai/ha) and 0 in test [1] (Preemergence, 1000 g ai/ha). The “Plant response rating (0 to 100 scale), Morningglory” value in test [2] (Postemergence, 1000 g ai/ha) amounted to 0; in test [2] (Preemergence, 1000 g ai/ha) it was 0. In addition, the “Plant response rating (0 to 100 scale), Wheat” value in test [3] (Postemergence, 1000 g ai/ha) is recorded as 0; in test [3] (Preemergence, 1000 g ai/ha), 0. The “Plant response rating (0 to 100 scale), Crabgrass, Large” value in test [4] (Postemergence, 1000 g ai/ha) is reported as 0; in test [4] (Preemergence, 1000 g ai/ha), 0. The “Plant response rating (0 to 100 scale), Pigweed” value amounted to 40 in test [5] (Postemergence, 1000 g ai/ha) and 0 in test [5] (Preemergence, 1000 g ai/ha). Also, the “Plant response rating (0 to 100 scale), Foxtail, Giant” value came to 0 in test [6] (Postemergence, 1000 g ai/ha) and 0 in test [6] (Preemergence, 1000 g ai/ha). Besides, the “Plant response rating (0 to 100 scale), Velvetleaf” value in test [7] (Postemergence, 1000 g ai/ha) is given as 0; in test [7] (Preemergence, 1000 g ai/ha) it was 0.

Regarding `ON=C(c1ccccc1)c1c[nH]nc1-c1cc(Br)cc(Br)c1` [Compound 49], the “Plant response rating (0 to 100 scale), Corn” value was 0 with corn (Zea mays) (Postemergence, 1000 g ai/ha) and 0 with corn (Zea mays) (Preemergence, 1000 g ai/ha). In addition, the “Plant response rating (0 to 100 scale), Barnyardgrass” value in test [1] (Postemergence, 1000 g ai/ha) was found to be 0; in test [1] (Preemergence, 1000 g ai/ha), 0. The “Plant response rating (0 to 100 scale), Morningglory” value in test [2] (Postemergence, 1000 g ai/ha) is 0; in test [2] (Preemergence, 1000 g ai/ha) it was 0. Moreover, the “Plant response rating (0 to 100 scale), Wheat” value turned out to be 0 in test [3] (Postemergence, 1000 g ai/ha) and 0 in test [3] (Preemergence, 1000 g ai/ha). Moreover, the “Plant response rating (0 to 100 scale), Crabgrass, Large” value in test [4] (Postemergence, 1000 g ai/ha) is on record as 0; in test [4] (Preemergence, 1000 g ai/ha) it was 0. Besides, the “Plant response rating (0 to 100 scale), Pigweed” value came out at 90 in test [5] (Postemergence, 1000 g ai/ha) and 80 in test [5] (Preemergence, 1000 g ai/ha). In addition, the “Plant response rating (0 to 100 scale), Foxtail, Giant” value in test [6] (Postemergence, 1000 g ai/ha) is 0; in test [6] (Preemergence, 1000 g ai/ha), 10. Also, the “Plant response rating (0 to 100 scale), Velvetleaf” value in test [7] (Postemergence, 1000 g ai/ha) is given as 80; in test [7] (Preemergence, 1000 g ai/ha), 0.
